Reference: patent US20230390296A1, “NOVEL TREATMENT AND PREVENTION OF SARCOPENIA-RELATED DISEASES” (KEIO UNIVERSITY, priority 2020, published 2023)

Experiments:
old mice = experiment: Muscle mass by MRI (volume of right gastrocnemius muscle/soleus muscle), with/without treadmill exercise; type: in vivo, mouse
Procedure: OK-1 was then intraperitoneally administered to each mouse twice a week at 20 mg/kg/day over 8 weeks (i.e., until reaching 23 week old and 88 week old, respectively). Treadmill exercise was conducted three times a week at 8 m/minute for 5 minutes→15 m/minute for 35 minutes while administering OK-1 twice a week at 20 mg/kg/day over 5 weeks (i.e., until reaching 28 week old and 93 week old, respectively). The muscle mass was then measured with the following equipment and conditions through MRI (FIG. 1B). MRI (MRminiSA1545, Japan REDOX) (magnetic flux density: 1.5 tesla (permanent magnet) (temporal resolution: 100 ns) was used to capture images of the lower limbs of the mice. The recovered data was converted into dicom data, and the volume of right gastrocnemius muscle/soleus muscle was quantified with Osirix Lite.

old mice (C57BL/6J) = experiment: Treadmill test of muscle strength (endurance) in young and old mice; type: in vivo, mouse; conditions: intraperitoneal, twice a week over three months, 20 mg/kg/day; young (15-week) and old (79-week) mice
Text: Decrease in endurance in old mice In order to confirm that a decrease in muscle strength is observed in mouse models (C57BL/6J) (purchased from Oriental Yeast), the muscle strength (endurance) in 15-week old young mice and 79-week-old old mice was investigated in a treadmill test in accordance with the following (FIG. 1A). Prior to recording the performance, mice were trained for 3 days to acclimate the mice to the equipment. Electric stimulation grid was adjusted to 1 mA, and the gradient was set to 15 degrees. On the first day of training, mice were induced to walk for 10 minutes at a rate of 10 m/minute, allowed to rest for 10 minutes, and then induced to walk for 10 minutes at a rate of 10 m/minute on a treadmill. On day 2 and day 3, the first two steps were the under the same conditions as day 1, and then the mice were induced to start walking at 10 m/minute. The speed was increased by 1 m/minute until reaching the maximum speed of 20 m/minute. On day 4, the maximum exercise endurance was measured. Six mice were placed on a treadmill, which was started at a belt speed of 5 m/minute for 5 minutes to let the mice warm up. The speed was increased 1 m/minute until reaching the maximum speed of 20 m/minute. After making the mice run for 5 minutes, the speed was increased from 20 m/minute to 21 m/minute for 10 minutes. The mice were then forced to run at 22 m/minute until stalling on the electric stimulation grid for 10 seconds. The distance traveled until stalling for 10 seconds was measured.
(§1) OK-1 manufactured in Manufacturing Example 1 was intraperitoneally administered to young and old mice twice a week over three months. The dosage was 20 mg/kg/day.
74-week old mice (C57B16/J) were purchased from Oriental Yeast. […] Muscle strength (endurance) and grip strength of mice administered with C-82 were then measured through a treadmill test and smart grip strength meter for rats and mice (Muromachi Kikai Co., Ltd.), respectively. […]

[1] = Body weight and behavior during the dosing period; type: in vivo, mouse; conditions: intraperitoneal, twice a week over three months, 20 mg/kg/day; young and old mice
Procedure: as §1

C2C12 cells = experiment: Gene expression levels in treated cultured cells; type: cell-based, mouse
Procedure: Mouse striated muscle derived cells, i.e., C2C12 cells, were cultured and treated with OK-1, ICG-001, or C-82. Gene expression levels of cells treated with OK-1, ICG-001, or C-82, and untreated cells are compared.

[2] = tested on: Activin Receptor and ACVR2B; conditions: cited from earlier work

O=C1[C@H](Cc2ccc(O)cc2)N2C(=O)CCN(C(=O)NCc3ccccc3)[C@H]2CN1Cc1cccc2ccccc12 [compound 8]
muscle mass (MRI), combined use of administration with exercise (old mice; 20 mg/kg/day twice a week plus treadmill exercise three times a week over 5 weeks): muscle mass significantly recovers synergistically | muscle mass (MRI) (old mice; intraperitoneal 20 mg/kg/day twice a week over 8 weeks, then 5 further weeks): increases muscle mass in old mice | muscle strength (endurance) through a treadmill test (old mice (C57BL/6J)): increase in muscle strength due to administration of compound 8 was observed specifically in old mice | change in body weight and behavioral abnormality during the dosing period [1]: a significant change in body weight and behavioral abnormality were not observed

O=C1[C@H](Cc2ccc(O)cc2)N2C(=O)CCN(C(=O)NCc3ccccc3)[C@H]2CN1Cc1cccc2ccccc12 [ICG-001]
gene expression levels versus untreated cells (C2C12 cells): change in gene expression similar to Example 2

B1: Bimagrumab: monoclonal antibodies (bimagrumab) developed by targeting Activin Receptor and ACVR2B (antibody, chains of the INN, looked up, V domains shown)
VH: QVQLVQSGAEVKKPGASVKVSCKASGYTFTSSYINWVRQAPGQGLEWMGTINPVSGSTSYAQKFQGRVTMTRDTSISTAYMELSRLRSDDTAVYYCARGGWFDYWGQGTLVTVSS
VL: QSALTQPASVSGSPGQSITISCTGTSSDVGSYNYVNWYQQHPGKAPKLMIYGVSKRPSGVSNRFSGSKSGNTASLTISGLQAEDEADYYCGTFAGGSYYGVFGGGTKLTVL
muscle mass ([2]; background statement): promotes muscle differentiation to increase muscle mass | sarcopenia symptoms including the gait speed and grip strength ([2]; phase 2 trial completed, development discontinued in 2018): has not resulted in dramatic improvement in sarcopenia symptoms including the gait speed and grip strength
